According to US20210070748A1, “INHIBITORS OF BRUTONS TYROSINE KINASE” (Pharmacyclics LLC, priority 2015, published 2021):

Tests used:
Type in all cases: biochemical
LCK = LCK (Homo sapiens, UniProt P06239); experiment: Inhibition of a panel of kinases, in vitro HotSpot kinase assay: LCK; conditions: Table 13, A compounds; 1 μM ATP; read-out: IC50 LCK
EGFR = EGFR (Homo sapiens, UniProt P00533); experiment: Inhibition of a panel of kinases, in vitro HotSpot kinase assay: EGFR; conditions: Table 13, A compounds; 1 μM ATP
Experimental: (§1) The degree of inhibition of a panel of kinases is determined using the in vitro HotSpot kinase assay (purified enzymes, ^33P-ATP, an appropriate substrate and 1 μM ATP).

JAK3 = molecular target: T1, JAK3 (Homo sapiens, UniProt P52333); experiment: Inhibition of a panel of kinases, in vitro HotSpot kinase assay: JAK3; conditions: Table 13, A compounds; 1 μM ATP; read-out: IC50 JAK3
T1 sequence (P52333 1-1124): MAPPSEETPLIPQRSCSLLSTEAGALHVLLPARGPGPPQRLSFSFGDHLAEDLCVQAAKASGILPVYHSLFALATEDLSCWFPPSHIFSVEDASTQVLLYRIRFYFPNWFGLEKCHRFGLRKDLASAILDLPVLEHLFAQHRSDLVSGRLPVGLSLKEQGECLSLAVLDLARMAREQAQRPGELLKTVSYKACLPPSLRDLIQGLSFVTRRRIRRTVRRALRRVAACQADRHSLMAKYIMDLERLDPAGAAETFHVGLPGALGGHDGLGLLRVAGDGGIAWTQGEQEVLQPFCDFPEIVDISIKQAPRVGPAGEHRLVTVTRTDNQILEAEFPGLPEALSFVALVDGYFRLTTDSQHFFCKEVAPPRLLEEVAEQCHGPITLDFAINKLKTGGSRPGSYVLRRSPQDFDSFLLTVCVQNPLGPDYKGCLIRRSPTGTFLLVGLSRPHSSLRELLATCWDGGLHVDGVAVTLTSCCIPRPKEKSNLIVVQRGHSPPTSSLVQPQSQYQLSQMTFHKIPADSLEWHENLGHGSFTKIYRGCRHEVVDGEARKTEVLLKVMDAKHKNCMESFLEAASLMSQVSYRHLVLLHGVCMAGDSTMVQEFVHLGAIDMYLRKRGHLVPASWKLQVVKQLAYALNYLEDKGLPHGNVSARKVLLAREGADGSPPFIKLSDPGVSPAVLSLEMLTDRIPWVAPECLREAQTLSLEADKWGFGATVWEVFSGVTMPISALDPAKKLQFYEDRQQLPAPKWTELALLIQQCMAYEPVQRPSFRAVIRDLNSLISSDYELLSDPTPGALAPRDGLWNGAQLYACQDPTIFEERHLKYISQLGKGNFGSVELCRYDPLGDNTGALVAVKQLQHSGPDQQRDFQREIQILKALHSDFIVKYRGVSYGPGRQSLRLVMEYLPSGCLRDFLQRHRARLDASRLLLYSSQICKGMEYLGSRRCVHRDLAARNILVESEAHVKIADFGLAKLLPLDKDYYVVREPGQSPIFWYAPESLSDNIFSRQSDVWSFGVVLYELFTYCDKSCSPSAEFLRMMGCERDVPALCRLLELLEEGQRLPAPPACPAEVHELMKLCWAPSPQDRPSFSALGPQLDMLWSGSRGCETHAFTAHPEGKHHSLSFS

SRC = SRC (Homo sapiens, UniProt P12931); experiment: Inhibition of a panel of kinases, in vitro HotSpot kinase assay: SRC; conditions: Table 13, A compounds; 1 μM ATP
Experimental: as §1

BTK-WT = molecular target: T2, BTK-WT (Homo sapiens, UniProt Q06187); experiment: Btk in vitro inhibitory activity (one of Method A TR-FRET, Method B electrophoretic mobility shift, Method C radiometric filter binding); conditions: Table 13, A compounds; read-out: IC50 BTK-WT
T2 construct: purified from insect cells as a full-length construct containing an N-terminal 6X-His tag; His6 (N); made in house; host or cells: insect cells (baculovirus Sf21 in Method B)
T2 sequence (Q06187 whole entry): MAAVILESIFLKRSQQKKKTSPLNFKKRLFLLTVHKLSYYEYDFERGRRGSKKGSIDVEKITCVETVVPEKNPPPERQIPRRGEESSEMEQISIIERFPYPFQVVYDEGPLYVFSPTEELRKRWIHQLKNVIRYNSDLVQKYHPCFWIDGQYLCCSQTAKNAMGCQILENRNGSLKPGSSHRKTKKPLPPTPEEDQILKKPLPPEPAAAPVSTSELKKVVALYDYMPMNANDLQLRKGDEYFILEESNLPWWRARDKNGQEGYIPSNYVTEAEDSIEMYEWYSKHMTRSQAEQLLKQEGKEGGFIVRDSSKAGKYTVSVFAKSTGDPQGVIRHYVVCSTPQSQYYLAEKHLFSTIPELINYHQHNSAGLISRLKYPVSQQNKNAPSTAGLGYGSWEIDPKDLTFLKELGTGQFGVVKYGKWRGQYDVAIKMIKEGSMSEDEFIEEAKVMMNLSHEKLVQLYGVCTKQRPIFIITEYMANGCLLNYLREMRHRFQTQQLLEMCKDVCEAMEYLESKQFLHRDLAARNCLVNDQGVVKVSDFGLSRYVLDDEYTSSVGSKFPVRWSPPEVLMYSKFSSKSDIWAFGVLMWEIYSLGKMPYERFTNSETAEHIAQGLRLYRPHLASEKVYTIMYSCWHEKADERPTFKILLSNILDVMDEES

SRC, sequence (P12931 whole entry): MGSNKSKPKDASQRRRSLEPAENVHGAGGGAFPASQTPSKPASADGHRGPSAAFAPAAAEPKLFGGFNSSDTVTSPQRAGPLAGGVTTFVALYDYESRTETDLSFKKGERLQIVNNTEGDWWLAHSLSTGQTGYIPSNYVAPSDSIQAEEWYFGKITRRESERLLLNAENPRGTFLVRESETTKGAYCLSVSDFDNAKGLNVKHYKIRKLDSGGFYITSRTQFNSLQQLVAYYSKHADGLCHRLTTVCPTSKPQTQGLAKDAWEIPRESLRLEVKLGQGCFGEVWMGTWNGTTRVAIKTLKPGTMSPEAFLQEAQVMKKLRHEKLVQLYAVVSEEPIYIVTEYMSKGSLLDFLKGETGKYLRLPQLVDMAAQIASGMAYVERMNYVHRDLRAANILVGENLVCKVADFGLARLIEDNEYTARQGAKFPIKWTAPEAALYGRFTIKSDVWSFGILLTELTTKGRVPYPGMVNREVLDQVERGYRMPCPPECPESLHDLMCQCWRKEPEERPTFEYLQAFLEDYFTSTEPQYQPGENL
EGFR, sequence (P00533 25-1210): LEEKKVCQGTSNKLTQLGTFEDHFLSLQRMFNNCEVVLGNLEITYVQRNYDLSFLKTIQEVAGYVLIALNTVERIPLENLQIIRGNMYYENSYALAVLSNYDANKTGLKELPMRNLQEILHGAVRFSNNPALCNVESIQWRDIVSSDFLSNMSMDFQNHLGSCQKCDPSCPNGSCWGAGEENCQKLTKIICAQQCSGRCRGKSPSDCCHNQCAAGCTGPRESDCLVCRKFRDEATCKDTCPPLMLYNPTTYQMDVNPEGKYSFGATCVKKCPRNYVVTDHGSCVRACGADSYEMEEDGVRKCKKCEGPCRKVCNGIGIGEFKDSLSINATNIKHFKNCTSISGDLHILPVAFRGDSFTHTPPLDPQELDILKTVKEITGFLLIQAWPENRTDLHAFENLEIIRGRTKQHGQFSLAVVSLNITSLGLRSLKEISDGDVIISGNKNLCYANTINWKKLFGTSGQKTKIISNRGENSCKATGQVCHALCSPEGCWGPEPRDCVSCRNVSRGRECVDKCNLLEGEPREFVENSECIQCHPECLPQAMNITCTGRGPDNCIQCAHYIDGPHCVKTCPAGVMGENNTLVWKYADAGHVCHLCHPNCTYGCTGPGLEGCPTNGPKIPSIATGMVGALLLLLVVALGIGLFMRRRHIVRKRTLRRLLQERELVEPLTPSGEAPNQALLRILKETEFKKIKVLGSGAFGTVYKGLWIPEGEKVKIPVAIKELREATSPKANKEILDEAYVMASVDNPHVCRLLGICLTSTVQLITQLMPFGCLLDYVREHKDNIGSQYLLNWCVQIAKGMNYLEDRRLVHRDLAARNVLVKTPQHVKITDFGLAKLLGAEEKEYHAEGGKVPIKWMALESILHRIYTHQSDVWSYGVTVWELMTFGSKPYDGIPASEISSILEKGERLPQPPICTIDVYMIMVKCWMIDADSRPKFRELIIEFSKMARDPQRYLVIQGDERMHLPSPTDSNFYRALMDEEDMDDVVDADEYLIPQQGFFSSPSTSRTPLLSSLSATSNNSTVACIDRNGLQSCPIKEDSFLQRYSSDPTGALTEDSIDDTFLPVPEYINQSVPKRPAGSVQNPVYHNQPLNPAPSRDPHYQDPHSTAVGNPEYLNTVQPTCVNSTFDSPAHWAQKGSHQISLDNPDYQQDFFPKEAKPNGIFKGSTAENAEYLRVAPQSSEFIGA
LCK, sequence (P06239 whole entry): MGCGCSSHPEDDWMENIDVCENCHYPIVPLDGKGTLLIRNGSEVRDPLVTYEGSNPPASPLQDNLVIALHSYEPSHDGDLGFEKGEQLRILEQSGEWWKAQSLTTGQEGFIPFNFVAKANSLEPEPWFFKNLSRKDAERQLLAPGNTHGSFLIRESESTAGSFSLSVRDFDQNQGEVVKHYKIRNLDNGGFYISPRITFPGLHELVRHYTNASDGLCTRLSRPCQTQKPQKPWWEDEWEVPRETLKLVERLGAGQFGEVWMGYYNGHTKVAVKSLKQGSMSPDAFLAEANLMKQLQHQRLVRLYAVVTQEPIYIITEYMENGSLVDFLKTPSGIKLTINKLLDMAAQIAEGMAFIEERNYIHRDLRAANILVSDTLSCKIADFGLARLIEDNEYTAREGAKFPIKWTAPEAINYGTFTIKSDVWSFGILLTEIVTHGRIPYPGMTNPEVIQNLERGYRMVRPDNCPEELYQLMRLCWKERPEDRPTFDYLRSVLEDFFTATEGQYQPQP

Row | Compound | IC50 (LCK) [nM] | IC50 (EGFR) [nM] | IC50 (JAK3) [nM] | IC50 (SRC) [nM] | IC50 (BTK-WT) [nM]
1 | C[C@@H]1[C@H](NC(=O)c2ccc(C3CC3)cc2F)CCCN1c1cnc(C(N)=O)c(Nc2cnn(C)c2)c1 [Example A-127, 5-[(2R,3R)-3-(4-cyclopropyl-2-fluorobenzamido)-2-methylpiperidin-1-yl]-3-[(1-methyl-1H-pyrazol-4-yl)amino]pyridine-2-carboxamide] | 100 to 1000 | 1000 to 10000 | 1000 to 10000 | 100 to 1000 | 10 to 100
2 | C[C@@H]1[C@H](NC(=O)c2ccc(C3CC3)cc2F)CCCN1c1cnc(C(N)=O)c(Nc2cc(CN3CCOCC3)ns2)n1 [Example A-128, 5-[(2R,3R)-3-(4-cyclopropyl-2-fluorobenzamido)-2-methylpiperidin-1-yl]-3-{[3-(morpholin-4-ylmethyl)-1,2-thiazol-5-yl]amino}pyrazine-2-carboxamide] | 10 to 100 | 100 to 1000 | 100 to 1000 | 10 to 100 | ≤ 10
3 | CN1CCN(c2ccc(Nc3nc(N4CCC[C@@H](n5ccc6cc(C7CC7)cc(F)c6c5=O)C4)cnc3C(N)=O)cc2)CC1 [Example A-133, 5-[(3R)-3-(6-cyclo-propyl-8-fluoro-1-oxo-1,2-dihydroisoquinolin-2-yl)piperidin-1-yl]-3-{[4-(4-methylpiperazin-1-yl)phenyl]amino}pyrazine-2-carboxamide] | 100 to 1000 | 100 to 1000 | 100 to 1000 | 10 to 100 | ≤ 10
4 | C[C@@H]1[C@H](n2ccc3cc(C4CC4)ccc3c2=O)CCCN1c1cnc(C(N)=O)c(Nc2ccc(N3CCN(C)CC3)cc2)n1 [Example A-140, 5-[(2R,3R)-3-(6-cyclopropyl-1-oxo-1,2-dihydro-isoquinolin-2-yl)-2-methylpiperidin-1-yl]-3-{[4-(4-methylpiperazin-1-yl)phenyl]amino}pyrazine-2-carboxamide] | 10 to 100 | 100 to 1000 | 1000 to 10000 | 10 to 100 | ≤ 10
5 | CC1(c2ccc(Nc3nc(N4CCC[C@@H](n5ccc6cc(C7CC7)ccc6c5=O)C4)cnc3C(N)=O)cc2)CCN(C2CCCC2)CC1 [Example A-141, 3-{[4-(1-cyclopentyl-4-methylpiperidin-4-yl)phenyl]amino}-5-[(3R)-3-(6-cyclopropyl-1-oxo-1,2-dihydroisoquinolin-2-yl)piperidin-1-yl]pyrazine-2-carboxamide] | 10 to 100 | 100 to 1000 | 100 to 1000 | 10 to 100 | ≤ 10
6 | CC(C)N1CCN(c2ccc(Nc3nc(N4CCC[C@@H](NC(=O)c5ccc(C6CC6)cc5F)[C@H]4C)cnc3C(N)=O)cc2)CC1 [Example A-149, 5-[(2R,3R)-3-(4-cyclopropyl-2-fluorobenzamido)-2-methylpiperidin-1-yl]-3-({4-[4-(propan-2-yl)piperazin-1-yl]phenyl}amino)pyrazine-2-carboxamide] | 10 to 100 | 100 to 1000 | 1000 to 10000 | 10 to 100 | ≤ 10
7 | C[C@@H]1[C@H](NC(=O)c2ccc(C3CC3)cc2F)CCCN1c1cnc(C(N)=O)c(Nc2ccc(S(=O)(=O)N3CCN(C)CC3)cc2)n1 [Example A-156, 5-[(2R,3R)-3-(4-cyclopropyl-2-fluorobenzamido)-2-methylpiperidin-1-yl]-3-({4-[(4-methylpiperazin-1-yl)sulfonyl]phenyl}amino)pyr-azine-2-carboxamide] | 1000 to 10000 | 1000 to 10000 | > 10000 | 100 to 1000 | ≤ 10
8 | Cn1cc(Nc2nc(N3CCC[C@@H](n4ccc5cc(C6CC6)ccc5c4=O)C3)cnc2C(N)=O)cn1 [Example A-167, 5-[(3R)-3-(6-cyclopropyl-1-oxo-1,2-dihydroisoquinolin-2-yl)piperidin-1-yl]-3-[(1-methyl-1H-pyrazol-4-yl)amino]pyrazine-2-carboxamide] | 1000 to 10000 | > 10000 | > 10000 | 1000 to 10000 | ≤ 10
9 | C[C@@H]1[C@H](NC(=O)c2ccc(C3CC3)cc2)CCCN1c1cnc(C(N)=O)c(Nc2cnn(C)c2)n1 [Example A-169, 5-[(2R,3R)-3-(4-cyclopropylbenzamido)-2-methylpiperidin-1-yl]-3-[(1-methyl-1H-pyrazol-4-yl)amino]pyrazine-2-carboxamide] | 100 to 1000 | 1000 to 10000 | 1000 to 10000 | 100 to 1000 | ≤ 10
10 | C[C@@H]1[C@H](NC(=O)c2ccc(C3CC3)cc2)CCCN1c1cnc(C(N)=O)c(Nc2ccc(N3CCN(C)CC3)cc2)n1 [Example A-170, 5-[(2R,3R)-3-(4-cyclopropylbenzamido)-2-methylpiperidin-1-yl]-3-{[4-(4-methylpiperazin-1-yl)phenyl]amino}pyrazine-2-carboxamide] | 10 to 100 | 100 to 1000 | 1000 to 10000 | 10 to 100 | ≤ 10
11 | C[C@@H]1[C@H](NC(=O)c2ccc(C3CC3)cc2F)CCCN1c1cnc(C(N)=O)c(Nc2ccc(N3CCN(C)CC3)c(F)c2)n1 [Example A-171, 5-[(2R,3R)-3-(4-cyclopropyl-2-fluorobenzamido)-2-methylpiperidin-1-yl]-3-{[3-fluoro-4-(4-methylpiperazin-1-yl)phenyl]amino}pyrazine-2-carboxamide] | 10 to 100 | 100 to 1000 | 1000 to 10000 | 10 to 100 | ≤ 10
12 | C[C@@H]1[C@H](NC(=O)c2ccc(C3CC3)cc2)CCCN1c1cnc(C(N)=O)c(Nc2cnn(C3CCN(C)CC3)c2)n1 [Example A-173] | 10 to 100 | 100 to 1000 | 1000 to 10000 | 10 to 100 | ≤ 10
13 | C[C@@H]1[C@H](NC(=O)c2ccc(C3CC3)cc2F)CCCN1c1cnc(C(N)=O)c(Nc2ccc(C3(C)CCN(C4CC4)CC3)cc2)n1 [Example A-174, 5-[(2R,3R)-3-(4-cyclopropyl-2-fluorobenzamido)-2-methylpiperidin-1-yl]-3-{[4-(1-cyclopropyl-4-methylpiperidin-4-yl)phenyl]amino}pyrazine-2-carboxamide] | 10 to 100 | 100 to 1000 | 10 to 100 | 100 to 1000 | ≤ 10
14 | C[C@@H]1[C@H](NC(=O)c2ccc(C3CC3)cc2F)CCCN1c1cnc(C(N)=O)c(Nc2ccc(S(=O)(=O)N3CCCC3)cc2)n1 [Example A-175, 5-[(2R,3R)-3-(4-cyclopropyl-2-fluorobenzamido)-2-methylpiperidin-1-yl]-3-{[4-(pyrrolidine-1-sulfonyl)phenyl]amino}pyr-azine-2-carboxamide] | > 10000 | 1000 to 10000 | > 10000 | > 10000 | ≤ 10
15 | C[C@@H]1[C@H](NC(=O)c2ccc(C3CC3)cc2F)CCCN1c1cnc(C(N)=O)c(Nc2ccc(N3CCN(C)C[C@@H]3C)cc2)n1 [Example A-176, 5-[(2R,3R)-3-(4-cyclopropyl-2-fluorobenzamido)-2-methylpiperidin-1-yl]-3-({4-[(2S)-2,4-dimethylpiperazin-1-yl]phenyl}amino)pyrazine-2-carboxamide] | 10 to 100 | 100 to 1000 | 100 to 1000 | 100 to 1000 | ≤ 10
16 | C[C@@H]1[C@H](NC(=O)c2ccc(C3CC3)cc2F)CCCN1c1cnc(C(N)=O)c(Nc2ccc(N3CCN(C)CC3)nc2)n1 [Example A-177, 5-[(2R,3R)-3-(4-cyclopropyl-2-fluorobenzamido)-2-methylpiperidin-1-yl]-3-{[6-(4-methylpiperazin-1-yl)pyridin-3-yl]amino}pyrazine-2-caoxamide] | 100 to 1000 | 1000 to 10000 | 1000 to 10000 | 100 to 1000 | ≤ 10
